Results: US5767068A, “Pure biologically active colistin, its components and a colistin formulation for treatment of pulmonary infections” (Pathogenesis Corporation, priority 1997, dated 1998)

Legend:
[1] = Jet nebulization (Pari LC Jet) with laser diffraction aerosol characterization; type: physicochemical; details: Pari LC Jet nebulizer, n=3
Procedure: Colimycin was freshly dissolved in 37.5 mM NaCl at a concentration of 20 mg/ml colistin base equivalent immediately prior to nebulization. Colistin component IV sulfate was dissolved in 120 mM sodium chloride, and the pH was adjusted to 7.0 with 1 molar sodium hydroxide.
Four ml of solution to be nebulized was placed in a Pari LC Jet nebulizer fitted with a Pulmonaide Compressor (DeVilbiss Model 5650D) with an air flow rate of 4-6 liters/minute. Aerosols generated are characterized by passing through a laser diffraction particle analyzer (Malvern Mastersizer X). Each formulation was analyzed multiple times to determine reproducibility of results, which were expressed as total obscuration time, mass median average diameter, and respirable fraction.
In order to characterize colistin aerosols, and to investigate differences between the colimycin and colistin aerosol formulations, comparisons of the aerosolization of 150 mM (isotonic) NaCl alone, 20 mg/ml colistin component IV sulfate in 120 mM or 20 mg/ml colimycin in […] NaCl were made. Results are shown in FIG. 18, which is a comparison of the times required for aerosolization of 4 mL of the three solutions. The two drug solutions were analyzed three times, and saline was analyzed four times. Bars show standard deviations of measurements.
Colimycin was freshly dissolved in 37.5 mM […] NaCl at a concentration of 20 mg (colistin base equivalents)/ml solution immediately prior to nebulization. […]
Four ml of solution to be nebulized was placed in a Pari LC Jet nebulizer fitted with a Pulmonaide Compressor, DeVilbiss Model 5650D, with an air flow rate of 4-6 liters/minute. […] Each formulation was analyzed multiple times to determine reproducibility of results, which were expressed as total obscuration time, mass median particle diameter, and respirable fraction.
Mass median particle diameters were expressed as average ±standard deviation (n) for aerosols.
Average respirable fractions were calculated as average percentage of particles ranging from 1 micron to 6 microns in diameter within the aerosol over time.

[2] = pH of freshly dissolved colimycin solutions over time; type: physicochemical; details: 10.0, 15.0 and 20.0 mg/ml in water, all cases
Procedure: Acidic stability of the colimycin solution was determined according to Example 11. Briefly, colimycin (405 mg) was freshly dissolved in water to achieve 10.0 mg/ml, 15.0 mg/ml, and 20.0 mg/ml solutions. These values correspond to concentrations of 3.7 mg/ml, 5.6 mg/ml and 7.4 mg/ml colistin base equivalent. Solution pH was monitored continuously at various times from 1 minute to 180 minutes and pH values and times were recorded.
The pH of freshly dissolved colimycin was determined by weighing a freshly opened vial of Coly-Mycin M Parenteral, Parke-Davis, lot# 01966P, containing 405 mg into 20 ml glass screwcap scintillation vials and adding an appropriate volume of sterile irrigation water to achieve 10.0 mg/ml, 15.0 mg/ml, and 20.0 mg/ml solutions. These values correspond to concentrations of 3.7 mg/ml, 5.6 mg/ml and 7.4 mg/ml colistin base equivalent. Solution pH was then monitored continuously using a Beckman Phi-10 pH meter fitted with a Beckman Futura Plus combination electrode calibrated at pH 4.0 and 7.0 as per manufacturer's instructions prior to use. At various times from 1 minute to 180 minutes, pH values and times were recorded.

[3] = systemic intravenous, acute pulmonary exacerbation; cited from earlier work
[4] = in situ in the recipient patient body; cited from earlier work
Pseudomonas aeruginosa [5] = assay: Time kill kinetic study of bactericidal activity; type: cell-based
Procedure: Comparison of anti-Pseudomonas aeruginosa activities of colimycin and colistin hydrochloride was performed using time kill kinetic studies as described in Antimicrobial Susceptibility Testing, Section 5.16.: Tests to assess bactericidal activity, Clinical Microbiology Procedure Handbook, Ed. Henry D. Isenberg, ASM, Washington, DC (1992). The exact procedure is described in Example 14.
Briefly, tests were similar to those used for determining MICs, except that the final test volume was larger (10 mL) to allow sampling at various time points. Parenteral colimycin was freshly diluted immediately before testing. Cultures were incubated at 37° C. At initial set-up and at various time-points, cultures were plated, with or without further dilution, onto sheep blood agar plates. Plates were incubated for 18-24 hours, and the number of CFU/mL was determined and plotted to determine the percentage of surviving organisms and the time required to achieve 99.9% killing. Results are seen in FIG. 15.
In this study, Pseudomonas aeruginosa organisms were exposed to varying concentrations of colistin or colimycin as indicated in FIG. 15. Concentrations of colimycin were between 8-64 μg/ml. Concentrations of colistin component IV hydrochloride were 0.25 and 0.5 μg/ml, that is 32-256 (for 0.25 μg/ml) and 16-128 (for 0.5 μg/ml) times lower that concentrations of colimycin. Colony-forming unit (CFU) per ml were determined and plotted against drug exposure time in hours.
Time kill kinetic studies were performed as described in (Antimicrobial Susceptibility Testing, Section 5.16. Tests to assess bactericidal activity, in Clinical Microbiology Procedure Handbook (supra).
Tests were set in the same way used for determining MICs (Example 13), except that the final test volume was larger (10 mL) to allow sampling at various time points. Cultures were incubated at 37° C. At initial set-up and at various desired time-points, cultures were sampled and plated (with or without further dilution) onto sheep blood agar plates. Plates were incubated for 18-24 hours, and the number of CFU/mL was determined and plotted to determine the percentage of surviving organisms and the time required to achieve 99.9% killing.

[6] = 2,000,000 units nebulized; cited from earlier work
Pseudomonas aeruginosa [7] = details: cited from earlier work
[8] = 20 mg/ml, average±standard deviation

Compound	average respirable fraction (particles from 1 micron to 6 microns) [1, 8]	mass median particle diameter of the aerosol [1, 8]	aerosolization time ([1]; 4 mL of 20 mg/ml solution, mean)	pH of solution within 3 minutes [2]	cases with nephrotoxicity symptoms [3]	cases with neurotoxicity symptoms [3]	drug converted to colistin in an hour [4]	eradication of Pseudomonas aeruginosa organism (Pseudomonas aeruginosa [5]; 8 μg/mL, 4 hours of testing)	killing of test organism (Pseudomonas aeruginosa [5]; 16 μg/mL, at 3 hours)	time at which over 5 logs killing was shown (Pseudomonas aeruginosa [5]; 64 μg/mL)	concentration required for similar level of killing (over 5 logs within 2 hours) (Pseudomonas aeruginosa [5]; freshly dissolved)	patients reporting chest tightness (bronchoconstriction response) [6]	strains of Pseudomonas aeruginosa sensitive to treatment (Pseudomonas aeruginosa [7])
colimycin	58.77±2.03 percentage	4.11±0.29 microns	10.53 min	> 7.5	about 5%	about 29%	~3%	did not, even at 4 hours of testing, eradicate	over 5 logs	1.5 hours	32 μg/ml	approximately 65%	–
NC[C@H]1O[C@H](O[C@H]2[C@H](O)[C@@H](O[C@H]3O[C@H](CO)[C@@H](O)[C@H](N)[C@H]3O)[C@H](N)C[C@@H]2N)[C@H](N)C[C@@H]1O [tobramycin]	–	–	–	–	–	–	–	–	–	–	–	–	about 90%
